Measured values taken from US20180140578A1, “METHODS AND COMPOSITIONS FOR THE DIAGNOSIS AND SELECTIVE TREATMENT OF CANCER” (Board of Regents of the University of Texas System, priority 2016, published 2018).
pIC50: −log10 of the molar value.

Legend:
HCC78 and H1373 = experiment: 3 day viability assay, U2AF1 mutant lung cancer cell lines; type: cell-based, human
Text: HCC78 and H1373 non-small cell lung cancer cell lines harbor a heterozygous mutations (C to T) in U2AF1 leading to a Serine to Phenylalanine mutation at position 34. FIG. 19 depicts Sanger sequencing of a RT-PCR product from both cell lines. […] Thus, mutations in splicing factor U2AF1 can be used as a biomarker for treating cancer, in a DCAF15 independent manner or together with the DCAF15 biomarker.

[1] = target: T1, RBM39-3xFLAG with DDA1, DDB1, CUL4A (Homo sapiens, UniProt Q14498+Q66K64); experiment: In vitro formation of RBM39-CUL4-DCAF15 complex in lysates; type: binding; conditions: indisulam dose-dependent manner
T1 construct: endogenous in cells; host or cells: HCT-116 RBM39-3xFLAG knock-in cells (treated cells in A90)
Procedure: First, we reconstituted formation of the RBM39-CUL4-DCAF15 complex in vitro (FIG. 4, panel A).
Anti-Flag M2 antibody (Sigma-Aldrich) was coupled to Dynabeads M-270 epoxy beads (Life Technologies) at the ratio of 10 μg of antibody/mg beads. […] Frozen cells were then pulverized in the a cryomill (Retsch) with one 25 mm steel ball and five cycles of three min at 25 Hz with intermittent cooling in liquid nitrogen. […] The lysates were centrifuged at 8000 g for 5 min at 4° C. 12 mg of conjugated Anti-Flag magnetic beads were mixed with clarified lysates for 5 min at 4° C. on a rotating platform, followed by three washes with IP buffer. Bound proteins were eluted with 1 mg/ml 3xFLAG peptide, followed by SDS-PAGE on a 10% Bis Tris gel. After brief electrophoresis, bands containing all the proteins were cut with clean blades. For western blotting of co-immunoprecipitated proteins, anti-DDA1 (ProteinTech, 14995-1-AP, 1:1000), anti-DDB1 (Abcam, ab109027, 1;10000), anti-CUL4A (Cell Signaling, 2699, 1:1000), anti-CUL4B (ProteinTech, 12916-1-AP, 1:1000) were used.

[2] = tested on: H1155 RBM39 G268V knock-in cells; experiment: Cell viability assay, RBM39 G268V knock-in; type: cell-based, human
Procedure: (§1) 12-point dose responses were performed on 96-well assay plates with cell plating (1500-4000 cell per well) on day 1, compound addition on day 2, and survival measurement on day 5. Compounds were diluted in DMSO before adding to the cells. Final DMSO concentration was 0.5%. Cell survival assay was performed using CellTiter-Glo Luminescent Cell Viability Assay kit (Promega) that measures cellular ATP content. Luminescence was recorded by EnVison multimode plate reader (Perkin Elmer). IC50 was determined with GraphPad Prism using baseline correction (by normalizing to DMSO control), the asymmetric (five parameter) equation and least squares fit.
(§2) sgRNA targeting RBM39 (5′-[…]-3′) was cloned into the pSpCas9(BB)-2A-Puro (PX459) vector (Addgene 62988). For RBM39 G268V knock-in, 1 million HCT-116 or H1155 cells were nucleofected (using 4D-Nucleofector, Lonza) with PX459-RBM39 sgRNA and the single-stranded oligo 5′-[…] […] […] […]-3′ (SEQ ID NO: 13).

[3] = tested on: HCT-116 RBM39 G268V knock-in cells; experiment: Cell viability assay, RBM39 G268V knock-in; type: cell-based, human
Procedure: as §1, §2

RBM39 = target: T2, RBM39 (Homo sapiens, UniProt Q14498+Q66K64); experiment: RBM39 degradation in cells (western blotting); type: cell-based; conditions: HCT-116 cells; dose dependent, evident as early as two hours after treatment
T2 construct: triggers the degradation of RBM39 in parental HCT-116 cells; endogenous in cells; host or cells: HCT-116
Procedure: Proteins were resolved on SDS-PAGE and transferred to 0.5 μm nitrocellulose membranes. Membranes were blocked in 5% milk TBST for 30 min, and then anti-RBM39 antibodies (HPA001591, Sigma-Aldrich) were added in 5% milk (1:5000) and incubated on a shaker overnight at 4° C. After three 5 min washes with TBST, membranes were incubated with HRP-conjugated goat anti-rabbit secondary antibody (Bio-Rad) for 2 hr at room temperature. After three 5 min washes with TBST, membranes were developed with ECL (enhanced chemiluminescence) substrates.

## NS(=O)(=O)c1ccc(S(=O)(=O)Nc2cccc3c(Cl)c[nH]c23)cc1 [Indisulam, indisulam]
HCC78 and H1373
  sensitivity of cancer cell lines harboring a mutation in U2AF1: sensitive
[1]
  co-purification of DDA1, DDB1, CUL4A with RBM39-3xFLAG in lysates: co-purified
[2]
  effect of G268V editing on indisulam sensitivity: indisulam resistance
[3]; Homo sapiens, HCT-116, two independent RBM39 G268V knock-in HCT-116 clones
  pIC50: 4.41
[3]; two independent RBM39 G268V knock-in HCT-116 clones
  pIC50: 4.28
RBM39
  amount of RBM39 protein: reduced
